Key:
rape = assay: Test B pre/postemergence rape; assay type: in vivo, Brassica napus
In short: (§1)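 Response is a visual 0-to-10 score relative to untreated plants, where 0 means no effect and 10 means complete control, taken twelve to sixteen days after application. Treatments went onto soil at planting and onto foliage of 1- to 4-leaf plants, using a surfactant-containing non-phytotoxic solvent.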

purple nutsedge = assay: Test B pre/postemergence purple nutsedge; assay type: in vivo, Cyperus rotundus
In short: as §1

bamyardgrass = assay: Test B flood test barnyardgrass; assay type: in vivo, Echinochloa crus-galli
In short: (§2)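 Plants were grown to the 2-leaf stage before treatment with test chemical, then held in a greenhouse for twelve to sixteen days. Injury was visually rated against untreated controls on a 0–10 scale, where 0 is no effect and 10 is complete control.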

wheat = assay: Test B pre/postemergence wheat; assay type: in vivo, Triticum aestivum
In short: as §1

soybean = assay: Test B pre/postemergence soybean; assay type: in vivo, Glycine max
In short: as §1

giant foxtail = assay: Test B pre/postemergence giant foxtail; assay type: in vivo, Setaria faberii
In short: as §1

morningglory = assay: Test B pre/postemergence morningglory; assay type: in vivo, Ipomoea hederacea
In short: as §1

smallflower flatsedge = assay: Test B flood test smallflower flatsedge; assay type: in vivo, Cyperus difformis
In short: as §2

rice = assay: Test B flood test rice; assay type: in vivo, Oryza sativa
In short: as §2

duck salad = assay: Test B flood test duck salad; assay type: in vivo, Heteranthera limosa
In short: as §2

pigweed = assay: Test B pre/postemergence pigweed; assay type: in vivo, Amaranthus retroflexus
In short: as §1

velvetleaf = assay: Test B pre/postemergence velvetleaf; assay type: in vivo, Abutilon theophrasti
In short: as §1

wild oat = assay: Test B pre/postemergence wild oat; assay type: in vivo, Avena fatua
In short: as §1

blackgrass = assay: Test B pre/postemergence blackgrass; assay type: in vivo, Alopecurus myosuroides
In short: as §1

sugar beet = assay: Test B pre/postemergence sugar beet; assay type: in vivo, Beta vulgaris
In short: as §1

cocklebur = assay: Test B pre/postemergence cocklebur; assay type: in vivo, Xanthium strumarium
In short: as §1

[1] = Preemergence, Rate 62 g/ha, scale of 0 to 10 where 0 is no effect and 10 is complete control
[2] = Preemergence, Rate 250 g/ha, scale of 0 to 10 where 0 is no effect and 10 is complete control
[3] = Preemergence, Rate 500 g/ha, scale of 0 to 10 where 0 is no effect and 10 is complete control
[4] = Rate 62 g/ha, Postemergence, scale of 0 to 10 where 0 is no effect and 10 is complete control
[5] = Rate 125 g/ha, Postemergence, scale 0 to 10
[6] = Rate 125 g/ha, Preemergence, scale of 0 to 10 where 0 is no effect and 10 is complete control
[7] = Rate 500 g/ha, Postemergence, scale 0 to 10, 0 no effect, 10 complete control
[8] = Rate 62 g/ha, headed Pre-emergence (flood test species), scale 0 to 10 (0 no effect, 10 complete control)
[9] = Rate 125 g/ha, Pre-emergence, flood test species, scale 0 to 10 where 0 is no effect and 10 is complete control
[10] = Rate 250 g/ha, Pre-emergence, flood-test species, scale 0 to 10, 0 is no effect, 10 is complete control
[11] = Rate 500 g/ha, Pre-emergence, flood test species, scale 0 to 10 (0 no effect, 10 complete control)

Cc1ccccc1-n1c(=O)on(C(=O)N(c2ccc(C(C)C)cc2)C(C)C)c1=O [Compound 231]
2: Morningglory plant response rating (morningglory; [5])
4: Morningglory plant response rating (morningglory; [7])
8: Plant response rating, Giant foxtail (giant foxtail; [3])
0: Rape plant response rating (rape; [1]) | Rape plant response rating (rape; [2]) | Plant response rating, Rape (rape; [3]) | Rape plant response rating (rape; [4]) | Rape plant response rating (rape; [5]) | Rape plant response rating (rape; [6]) | Plant response rating (0 to 10; 0 is no effect, 10 is complete control), Rape (rape; Rate 250 g/ha, Postemergence) | Rape plant response rating (rape; [7]) | Nutsedge plant response rating (purple nutsedge; [1]) | Nutsedge plant response rating (purple nutsedge; [2]) | Plant response rating, Nutsedge (purple nutsedge; [3]) | Nutsedge plant response rating (purple nutsedge; [4]) | Nutsedge plant response rating (purple nutsedge; [5]) | Nutsedge plant response rating (purple nutsedge; [6]) | Plant response rating (0 to 10; 0 is no effect, 10 is complete control), Nutsedge (purple nutsedge; Rate 250 g/ha, Postemergence) | Nutsedge plant response rating (purple nutsedge; [7]) | Barnyardgrass plant response rating (bamyardgrass; [8]) | Barnyardgrass plant response rating (bamyardgrass; [9]) | Barnyardgrass plant response rating (bamyardgrass; [10]) | Barnyardgrass plant response rating (bamyardgrass; [11]) | Wheat plant response rating (wheat; [1]) | Wheat plant response rating (wheat; [2]) | Plant response rating, Wheat (wheat; [3]) | Wheat plant response rating (wheat; [4]) | Wheat plant response rating (wheat; [5]) | Wheat plant response rating (wheat; [6]) | Plant response rating (0 to 10; 0 is no effect, 10 is complete control), Wheat (wheat; Rate 250 g/ha, Postemergence) | Wheat plant response rating (wheat; [7]) | Soybean plant response rating (soybean; [1]) | Soybean plant response rating (soybean; [2]) | Plant response rating, Soybean (soybean; [3]) | Soybean plant response rating (soybean; [4]) | Soybean plant response rating (soybean; [6]) | Giant foxtail plant response rating (giant foxtail; [1]) | Giant foxtail plant response rating (giant foxtail; [4]) | Giant foxtail plant response rating (giant foxtail; [5]) | Giant foxtail plant response rating (giant foxtail; [6]) | Plant response rating (0 to 10; 0 is no effect, 10 is complete control), Giant foxtail (giant foxtail; Rate 250 g/ha, Postemergence) | Giant foxtail plant response rating (giant foxtail; [7]) | Morningglory plant response rating (morningglory; [1]) | Morningglory plant response rating (morningglory; [2]) | Morningglory plant response rating (morningglory; [6]) | S. Flatsedge plant response rating (smallflower flatsedge; [8]) | S. Flatsedge plant response rating (smallflower flatsedge; [9]) | S. Flatsedge plant response rating (smallflower flatsedge; [10]) | S. Flatsedge plant response rating (smallflower flatsedge; [11]) | Rice plant response rating (rice; [8]) | Rice plant response rating (rice; [9]) | Rice plant response rating (rice; [10]) | Rice plant response rating (rice; [11]) | Ducksalad plant response rating (duck salad; [8]) | Ducksalad plant response rating (duck salad; [9]) | Ducksalad plant response rating (duck salad; [10]) | Ducksalad plant response rating (duck salad; [11]) | Redroot pigweed plant response rating (pigweed; [1]) | Redroot pigweed plant response rating (pigweed; [2]) | Plant response rating, Redroot pigweed (pigweed; [3]) | Redroot pigweed plant response rating (pigweed; [4]) | Redroot pigweed plant response rating (pigweed; [5]) | Redroot pigweed plant response rating (pigweed; [6]) | Plant response rating (0 to 10; 0 is no effect, 10 is complete control), Redroot pigweed (pigweed; Rate 250 g/ha, Postemergence) | Redroot pigweed plant response rating (pigweed; [7]) | Velvetleaf plant response rating (velvetleaf; [1]) | Velvetleaf plant response rating (velvetleaf; [2]) | Plant response rating, Velvetleaf (velvetleaf; [3]) | Velvetleaf plant response rating (velvetleaf; [4]) | Velvetleaf plant response rating (velvetleaf; [5]) | Velvetleaf plant response rating (velvetleaf; [6]) | Plant response rating (0 to 10; 0 is no effect, 10 is complete control), Velvetleaf (velvetleaf; Rate 250 g/ha, Postemergence) | Velvetleaf plant response rating (velvetleaf; [7]) | Wild oats plant response rating (wild oat; [1]) | Wild oats plant response rating (wild oat; [2]) | Plant response rating, Wild oats (wild oat; [3]) | Wild oats plant response rating (wild oat; [4]) | Wild oats plant response rating (wild oat; [5]) | Wild oats plant response rating (wild oat; [6]) | Plant response rating (0 to 10; 0 is no effect, 10 is complete control), Wild oats (wild oat; Rate 250 g/ha, Postemergence) | Wild oats plant response rating (wild oat; [7]) | Blackgrass plant response rating (blackgrass; [1]) | Blackgrass plant response rating (blackgrass; [2]) | Plant response rating, Blackgrass (blackgrass; [3]) | Blackgrass plant response rating (blackgrass; [4]) | Blackgrass plant response rating (blackgrass; [5]) | Blackgrass plant response rating (blackgrass; [6]) | Plant response rating (0 to 10; 0 is no effect, 10 is complete control), Blackgrass (blackgrass; Rate 250 g/ha, Postemergence) | Blackgrass plant response rating (blackgrass; [7]) | Sugarbeets plant response rating (sugar beet; [1]) | Sugarbeets plant response rating (sugar beet; [2]) | Plant response rating, Sugarbeets (sugar beet; [3]) | Sugarbeets plant response rating (sugar beet; [4]) | Sugarbeets plant response rating (sugar beet; [5]) | Sugarbeets plant response rating (sugar beet; [6]) | Plant response rating (0 to 10; 0 is no effect, 10 is complete control), Sugarbeets (sugar beet; Rate 250 g/ha, Postemergence) | Sugarbeets plant response rating (sugar beet; [7]) | Cocklebur plant response rating (cocklebur; [1]) | Cocklebur plant response rating (cocklebur; [2]) | Plant response rating, Cocklebur (cocklebur; [3]) | Cocklebur plant response rating (cocklebur; [4]) | Cocklebur plant response rating (cocklebur; [5]) | Cocklebur plant response rating (cocklebur; [6]) | Plant response rating (0 to 10; 0 is no effect, 10 is complete control), Cocklebur (cocklebur; Rate 250 g/ha, Postemergence) | Cocklebur plant response rating (cocklebur; [7])
3: Giant foxtail plant response rating (giant foxtail; [2]) | Plant response rating (0 to 10; 0 is no effect, 10 is complete control), Morningglory (morningglory; Rate 250 g/ha, Postemergence)
6: Plant response rating, Morningglory (morningglory; [3])
1: Soybean plant response rating (soybean; [5]) | Plant response rating (0 to 10; 0 is no effect, 10 is complete control), Soybean (soybean; Rate 250 g/ha, Postemergence) | Soybean plant response rating (soybean; [7]) | Morningglory plant response rating (morningglory; [4])
